Reference: US20190352297A1, “SELECTIVE AURORA A KINASE INHIBITORS” (UNIVERSITAT BERN, priority 2017, published 2019)

How the values were obtained:
Aurora A kinase domain = target: T1, Aurora A kinase domain (Homo sapiens, UniProt O14965); assay: HTRF kinase assay, Aurora A; type: biochemical
T1 construct: human Aurora A kinase domain (residues 122-403 in the pET24-d vector); His-tag (cleaved yes); made in house; host or cells: E. coli BL21 (DE3) Rosetta
T1 sequence (O14965 122-403): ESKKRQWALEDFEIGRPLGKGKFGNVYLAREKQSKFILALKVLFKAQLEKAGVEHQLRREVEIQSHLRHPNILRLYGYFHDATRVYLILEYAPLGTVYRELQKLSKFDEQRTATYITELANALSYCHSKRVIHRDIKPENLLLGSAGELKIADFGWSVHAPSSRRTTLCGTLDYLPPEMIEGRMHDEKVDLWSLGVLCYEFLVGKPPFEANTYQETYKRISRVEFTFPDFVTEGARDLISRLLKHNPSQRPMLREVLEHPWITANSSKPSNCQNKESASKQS
Protocol: The clone of human Aurora A kinase domain (residues 122-403 in the pET24-d vector) was kindly provided by the Montoya laboratory (University of Copenhagen). The construct was transformed into E. coli BL21 (DE3) Rosetta cells and protein expression was induced with 0.5 mM IPTG at 20° C. for 12 hours. The cells were harvested at 6,000×g for 25 min at 4° C. and resuspended in lysis buffer (50 mM Tris-HCl, 500 mM NaCl, 1 mM PMSF, pH=8.0). Disruption of the cells was performed by sonication cooled on ice, after which the debris were removed by centrifugation at 110,000×g for 30 min at 4° C. Aurora A was purified by affinity chromatography using NiNTA resin from Qiagen following the manufacturer's instructions. After loading, the resin was washed with lysis buffer, followed by a second wash with 6% elution buffer (50 mM Tris-HCl, 500 mM NaCl, 500 mM imidazole, pH=8.0). Protein was eluted with 100% elution buffer. The eluate was exchanged into final buffer (20 mM Tris-HCl, 200 mM NaCl, 0.5 mM EDTA, 2 mM DTT, pH=8.0) using a HiPrep 26/10 desalting column (GE Healthcare). The His-tag was cleaved with TEV protease at 4° C. overnight. […] Protein concentration was determined by UV absorbance. […]
Aurora A and AuroraB kinases were assayed using the homogeneous time-resolved fluorescence (HTRF) KinEASE STK2 kit from Cisbio (France). […] After incubation at room temperature for one hour, fluorescence was measured at 620 nm (europium cryptate) and 665 nm (XL-665) after excitation at 317 nm (lag time 60 μs, integration time 500 μs) using a Tecan Infinite M1000 PRO microplate reader (Greiner 384-well plates, white, non-binding, small volume). The ratio of fluorescence (665 nm/620 nm) was calculated for each well and the results were expressed as follows: specific signal=ratio (sample)−ratio (negative control), where ratio=665 nm/620 nm×10^4. Compounds were measured in threefold serial dilutions at 10 different concentrations, covering the concentration range from no to full inhibition. Each concentration was measured in duplicates, and two independent determinations were made for each IC50 value. […]

pThr288 Aurora A = assay: Phosphorylation of Aurora A Thr288 in cells; type: cell-based, human
Protocol: (§1) HeLa Kyoto cells were cultured in high-glucose DMEM with GlutaMAX (Life Technologies) media supplemented with 10% fetal calf serum (FCS) in a humidified 5% CO2 incubator at 37° C. For plasmid transfections, cells were seeded at 80-90% confluence. 4 μg of plasmid DNA in 100 μl OptiMEM and 4 μl of Lipofectamine 2000 (Life Technologies) in 100 μl OptiMEM were incubated in parallel for 5 minutes, mixed for 20 minutes and added to each well. All Aurora A clones were constructed using full-length Aurora A as a template with appropriate PCR primer pairs. […] GFP-Aurora AR137A and GFP-Aurora AW277A were engineered using a site directed mutagenesis kit (Agilent Technologies, no. 210515) with appropriate primers. For determining the mitotic index and the chromosome misalignment phenotype, cells were incubated with various concentrations of compounds for 20 h before analysis. Cells were likewise treated with 0.25 μM MLN8237 (Selleckchem, no. S1133) or 5 μM ZM447439 (Selleckchem, no. S1103). For flow cytometry analysis, 50 nM […] and 2.5 μM ZM447439 were used. For rescue experiments, HeLa Kyoto cells were first transfected with GFP-Aurora A, GFP-Aurora AR137A or GFP-Aurora AW277A for 20 h, followed by incubation with 9 for another 20 h before cells were fixed with cold methanol and stained. To assess the impact of compound 9 on cell cycle progression, DNA content was analyzed after propidium iodide staining using FACS (BD Accuri C6 flow cytometer).
For immunofluorescence, cells were fixed in cold methanol, washed in PBT (PBS supplemented with 0.05% Tween-20) and stained with the following primary antibodies: 1:200 rabbit anti-pT288 (Cell Signaling, C39D8), 1:200 rabbit anti-pH3S10 (Cell Signaling, D2C8), 1:500 mouse anti-α-tubulin (Transduction Laboratories, 612709), 1:300 mouse anti-GFP (MAB3580, Millipore), 1:200 anti-TPX2 (Santa Cruz Biotechnology, sc-32863), anti-Aurora A (Invitrogen, 458900). Secondary antibodies were anti-mouse conjugated to Alexa488 or Alexa568, as well as anti-rabbit conjugated to Alexa488 or Alexa568, all used at 1:500 (Invitrogen). […]

[1] = test system: phospho-Histone H3 Ser10 (Aurora B); assay: Phospho-Histone H3 Ser10 in cells (Aurora B activity); type: cell-based, human; details: treated cells
Protocol: as §1
(§2) For immunofluorescence, cells were fixed in cold methanol, washed in PBT (PBS supplemented with 0.05% Tween-20) and stained with the following primary antibodies: 1:200 rabbit anti-pT288 (Cell Signaling, C39D8), 1:200 rabbit anti-pH3S10 (Cell Signaling, D2C8), 1:500 mouse anti-α-tubulin (Transduction Laboratories, 612709), 1:300 mouse anti-GFP (MAB3580, Millipore), 1:200 anti-TPX2 (Santa Cruz Biotechnology, sc-32863), anti-Aurora A (Invitrogen, 458900). Secondary antibodies were anti-mouse conjugated to Alexa488 or Alexa568, as well as anti-rabbit conjugated to Alexa488 or Alexa568, all used at 1:500 (Invitrogen). Confocal images were acquired on a Zeiss LSM 710 confocal microscope equipped with a Axiocam MRm (B/VVW) CCD camera using a 63×NA 1.0 oil objective and processed in ImageJ and Adobe Photoshop, maintaining relative image intensities within a series.

HeLa Kyoto cells [2] = assay: DNA content analysis by flow cytometry; type: cell-based, human; details: 48 h, 9 even at 10 μM
Protocol: as §1, with “For rescue experiments, HeLa Kyoto cells were first transfected with GFP-Aurora A, GFP-Aurora AR137A or GFP-Aurora AW277A for 20 h, followed by incubation with 9 for another 20 h before cells were fixed with cold methanol and stained.” left out

Aurora A (Trp277) = target: T2, Aurora A (Trp277) (Homo sapiens, UniProt O14965); assay: Intrinsic tryptophan fluorescence; type: binding
T2 construct: human Aurora A kinase domain (residues 122-403 in the pET24-d vector); His-tag (cleaved yes); made in house; host or cells: E. coli BL21 (DE3) Rosetta
T2 sequence (O14965 122-403): T1 sequence (O14965 122-403)
Protocol: Binding experiments were performed by mixing Aurora A (500 nM, 375 nM, and 150 nM for 77, 9, and 88, respectively) with varying concentrations (0-100 μM) of the different compounds in buffer (final DMSO concentration 1%), followed by incubation for 15 min at room temperature. Tryptophan fluorescence spectra were recorded at room temperature using an Infinite M1000 Pro plate reader (Tecan) and Corning 96 well half area, flat bottom, non-binding surface, black polystyrene plates. Excitation occurred at 284 nm (bandwidth ±5 nm) and emission at 340 nm (bandwidth ±10 nm). The gain was calculated from the well with the highest protein concentration. Each measurement was done in triplicate.

HeLa Kyoto cells [3] = assay: Chromosome misalignment during metaphase; type: cell-based, human; details: HeLa Kyoto cells, 0.25 μM
Protocol: as §1, §2

[4] = test system: Aurora A localization, HeLa Kyoto cells; assay: Aurora A localization at the mitotic spindle (immunofluorescence); type: cell-based, human; details: overnight
Protocol: as §1
Secondary antibodies were anti-mouse conjugated to Alexa488 or Alexa568, as well as anti-rabbit conjugated to Alexa488 or Alexa568, all used at 1:500 (Invitrogen). Confocal images were acquired on a Zeiss LSM 710 confocal microscope equipped with a Axiocam MRm (B/VVW) CCD camera using a 63×NA 1.0 oil objective and processed in ImageJ and Adobe Photoshop, maintaining relative image intensities within a series.

Aurora A (pT288) = details: read-out: cellular IC50 (pT288) (reported); cited from earlier work
Aurora B (pH3) = details: pH 3; read-out: cellular IC50 (pH3) (reported); cited from earlier work

SMILES: CCc1ccc(N=C2SC(Cc3ccnc(Nc4ccc(C(=O)O)cn4)c3)C(=O)N2C)cc1 (racemic) [rac-92]
- IC50 (Aurora A kinase domain; free Aurora A, 20 μM ATP, HTRF, read-out: IC50 Aurora A (biochemical)): 24 nM
- activity in cells (pThr288 Aurora A): did not show any activity
- cellular pThr288 Aurora-A levels (pThr288 Aurora A; overnight incubation): does not reduce pThr288 levels

SMILES: COc1cc2c(Nc3ccc(NC(=O)c4ccccc4)cc3)ncnc2cc1OCCCN1CCOCC1 [Compound 94, ZM447439, reference compound]
- distribution of phospho-Histone H3 Ser10 [1]: absent
- accumulation of cells with 8N and 16N DNA contents (HeLa Kyoto cells [2]): massive accumulation

SMILES: CCc1ccc(N=C2SC(=Cc3ccnc(Nc4ccc(-c5nn[nH]n5)cc4)c3)C(=O)N2C)cc1 [Compound 88]
- tryptophan fluorescence, environment of Trp277 (Aurora A (Trp277)): perturbed the environment of Trp277

SMILES: COc1cc(Nc2ncc3c(n2)-c2ccc(Cl)cc2C(c2c(F)cccc2OC)=NC3)ccc1C(=O)O [Compound 1, Alisertib, reference compound]
- misaligned chromosomes (HeLa Kyoto cells [3]): ~100%
- Aurora A localization at spindle microtubules and centrosomes [4]: present at centrosomes but not on spindle microtubules
- Aurora A localization at spindle microtubules and centrosomes ([4]; listed as alisertib): notably displaced from the spindle microtubules

SMILES: O=C(O)[C@]1(Cc2cccc(Nc3nccs3)n2)CC[C@@H](Oc2cccc(Cl)c2F)CC1 [MK-5108]
- IC50 (Aurora B (pH3)): > 10000 nM

SMILES: CCc1ccc(N=C2SC(=Cc3ccncc3)C(=O)N2CCOC)cc1 [Compound 77]
- tryptophan fluorescence, environment of Trp277 (Aurora A (Trp277)): perturbed the environment of Trp277

SMILES: CCc1ccc(N=C2SC(Cc3ccnc(N)c3)C(=O)N2C)cc1 (racemic) [rac-91]
- fold less active than precursor 79 (Aurora A kinase domain; Aurora A inhibition relative to 79): 7 fold
